The text below walks through data of US8748566B2, “Pharmacologically active antiviral peptides and methods of use” (priority 2000, dated 2014).

The test system of test [1] is HSV-1 KOS. As to the kind of experiment: Yield reduction assay (virus production in infected Vero cells). The following applies: added one hour prior to infection; EB statement for concentrations exceeding 10 μM (FIG. 3). In kind it is cell-based. On the procedure:
Three days post-infection, Vero cell cultures in microtiter plates were frozen (−80° C.) and thawed (37° C.) three times. Cells were suspended by repeated pipetting and microtiter plates were spun for 10 min at 700×g in a Beckman model TJ-6 tabletop centrifuge. The virus-containing supernates were serially diluted in regular medium and titered on Vero cells. Plaques were counted after staining the monolayers with crystal violet as taught by Grau et al., Invest. Ophthalmol. Vis. Sci. 30:2474 (1989).
Vero cell cultures as prepared in Example 1 were infected with HSV-1 and assayed for virus production as described in Example 1. The antiviral activity of an antiviral peptide according to the present invention EB (SEQ ID NO:1) was compared to the antiviral activity of the current HSV antiviral nucleoside standard, acyclovir. The two peptides were added to the Vero cells one hour prior to infection with HSV.

In test [2] the test system is hrR3. In words: LacZ+ virus (hrR3) entry assay. In kind it is cell-based. On the procedure: Confluent Vero cell cultures in 96-well microtiter plates were switched to Hepes-buffered serum-free DMEM, cooled on ice to 4° C. for 30 min, and infected with hrR3 for 1 hour at 4° C. in 40 μl of medium. Unattached virus was removed by rinsing with ice-cold medium. Treatments with antiviral peptide SEQ ID NO:1, referred to as EB, or a control peptide which comprised the RRKK tetra-peptide (SEQ ID NO:16) attached to a scrambled version of the membrane transiting peptide RRKKLAALPLVLAAPLAVLA (SEQ ID NO:17) (referred to as EBX), or mock-treatments with peptide-free medium were carried out in serum-free DMEM as indicated. Virus entry was initiated by transferring cultures to 37° C. To inactivate any remaining extracellular virus, cultures were rinsed with PBS and exposed to low pH citrate buffer (40 mM citric acid, 10 mM KCl, 135 mM NaCl, pH 3.0, according to Highlander et al., J. Virol. 61:3356 (1987), for 1 min at 23° C. The citrate was rinsed off with PBS and cultures were maintained in serum-supplemented DMEM until they were fixed with 0.5% gluteraldehyde in 5×PBS for 30 min at 23° C., stained for β-galactosidase activity for 1 hour or overnight at 23° C. with X-gal (Fisher Biotech; BP 1615-1) in 1×PBS containing […], 1.3 mM K4Fe(CN)6, and 1.3 mM K3Fe(CN)6, and scored for the presence of blue lacZ^+ cells.
In these studies, the hrR3 virus was pre-adsorbed to cells for 1 hour at 4° C. before ice cold 25 μM EB or EBX were added in serum-free DMEM. After an additional 1 hour at 4° C., cultures were shifted to 37° C. to initiate virus entry. At 15 min intervals following the temperature shift, any virus remaining outside the cells was inactivated by washing the cultures with low pH citrate buffer. Cultures were then rinsed and returned to peptide-free serum-supplemented DMEM until they were fixed and stained for f-galactosidase 8 hours after the temperature shift.
This conclusion is strengthened by the finding that the EB-sensitive phase of infection with pre-adsorbed virus clearly precedes expression of lacZ genes in hrR3 infected cells (FIG. 7A). Again, hrR3 was pre-adsorbed to cells for 1 hour at 4° C., unattached virus was rinsed off, and cells were kept for an additional hour at 4° C. Cultures were then transferred to 23° C. for 30 min before they were switched to 37° C. The more gradual change to 37° C. allowed cell layers to remain intact through subsequent frequent medium changes. Immediately following viral adsorption, cells were treated with 50 μM EB for 1 hour periods at consecutive 1 hour intervals. Between 1 and 4 hours post-infection, virus entry was inhibited by 70-80%. […] Parallel cultures were immediately fixed after mock-treatments and stained with X-gal. In these cultures, blue (lacZ^+) cells first appeared 7 hours post-infection and their number increased nearly linearly for the next 3 hours (FIG. 7A, (∘)). By 7 hours post-infection, EB ceased to be inhibitory.

Take H-RRKKAAVALLPAVLLALLAP-OH [EB]: the “antiviral activity, EB compared with acyclovir” value in test [1] is recorded as “greatest antiviral activity”. The “inhibition of virus entry” value in test [2] (50 μM EB for 1 hour periods, between 1 and 4 hours post-infection (FIG. 7A)) was 70-80%. Besides, the “effect on development of lacZ+ cells” value in test [2] (peptide added immediately after each citrate treatment (FIG. 6B)) is reported as “no longer had any effect”.
